Measured values from patent US20220363686A1 (AiCuris GmbH & Co. KG, priority 2018, published 2022).
Like-named read-outs stand apart in the source and are kept apart here.

Assays:
HBV = assay: Determination of HBV DNA from the supernatants of HepAD38 cells (anti-HBV activity); type: cell-based, hepatitis B virus; conditions: Hepatitis B virus, HePAD38, 144 h, HBV DNA in HepAD38 supernatant, day 6, qPCR, read-out: Cell Activity
Method in brief: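 EC50 derived by non-linear regression of relative HBV DNA copy numbers, measured by qPCR (plasmid standards) in day-6 filtered supernatants. Before this, HepAD38 cells were exposed to serial half-log compound dilutions without tetracycline, releasing viral expression; cultures kept at 37 °C, 5% CO2.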

[1] = biological target: HBV core protein (C-terminal truncated core protein containing 149 amino acids of the N-terminal assembly domain) (UniProt P03146); assay: Biochemical capsid assembly assay (fluorescence quenching); parameters: rows headed: Assembly Activity; other: BODIPY-FL labelled core protein, assembly started with NaCl, read after 6 min; conditions: read-out: Assembly Activity; BODIPY-FL labelled core protein, assembly started with NaCl, read after 6 min
Sequence of HBV core protein (C-terminal truncated core protein containing 149 amino acids of the N-terminal assembly domain) (P03146 whole entry, the tested form may be a part): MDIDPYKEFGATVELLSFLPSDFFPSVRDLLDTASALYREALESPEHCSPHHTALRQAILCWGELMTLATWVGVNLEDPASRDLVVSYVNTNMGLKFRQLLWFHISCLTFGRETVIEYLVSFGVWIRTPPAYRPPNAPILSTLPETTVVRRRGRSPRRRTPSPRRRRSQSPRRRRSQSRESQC
Method in brief: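 N-terminal assembly domain (residues 1–149) plus C-terminal Cys150, E. coli-expressed, BODIPY-FL-maleimide labelled, used at 1.0–2.0 μM in 50 mM HEPES pH 7.5 with 0.5% DMSO. Assembly started with NaCl ([…]); fluorescence quenching (ex 477/em 525 nm) read after 6 min. 8-point compound series; EC50 by non-linear regression.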

[2] = Cell viability assay (AlamarBlue); conditions: human, HepAD38 cells
Experimental: Using the AlamarBlue viability assay cytotoxicity was evaluated in HepAD38 cells in the presence of 0.3 μg/ml tetracycline, which blocks the expression of the HBV genome. Assay condition and plate layout were in analogy to the anti-HBV assay, however other controls were used. On each assay plate six wells containing untreated HepAD38 cells were used as the 100% viability control, and six wells filled with assay medium only were used as 0% viability control. In addition, a geometric concentration series of cycloheximide starting at 60 μM final assay concentration was used as positive control in each experiment. After six days incubation period Alamar Blue Presto cell viability reagent (ThermoFisher, Dreieich) was added in 1/11 dilution to each well of the assay plate. After an incubation for 30 to 45 min at 37° C. the fluorescence signal, which is proportional to the number of living cells, was read using a Tecan Spectrafluor Plus plate reader with an excitation filter 550 nm and emission filter 595 nm, respectively. Data were normalized into percentages of the untreated control (100% viability) and assay medium (0% viability) before CC50 values were calculated using non-linear regression and the GraphPad Prism 6.0 (GraphPad Software, La Jolla, USA). Mean EC50 and CC50 values were used to calculate the selectivity index (SI=CC50/EC50) for each test compound.

Compound `CN(C(=O)c1cnn2c1CN(C(=O)c1cc3ccccc3[nH]1)CC2)C1(COCCCO)CC1` [Example 65, N-{1-[(3-hydroxypropoxy)methyl]cyclopropyl}-5-(1H-indole-2-carbonyl)-N-methyl-4H,5H,6H,7H-pyrazolo[1,5-a]pyrazine-3-carboxamide] has an EC50 (HBV) of less than 1 µM, an IC50 [1] of less than 5 µM and a CC50 at 6 days [2] greater than 10 µM.
With `O=C(c1cc2ccccc2[nH]1)N1CCn2ncc(-c3cscn3)c2C1` [Example 66, 2-[3-(1,3-thiazol-4-yl)-4H,5H,6H,7H-pyrazolo[1,5-a]pyrazine-5-carbonyl]-1H-indole] the EC50 (HBV) was less than 1 µM, the IC50 [1] was less than 5 µM and the CC50 at 6 days [2] was greater than 10 µM.
In the case of `O=C(c1cc2ccccc2[nH]1)N1CCn2ncc(C(=O)N3CCCOCC34CC4)c2C1` [Example 67, 4-[5-(1H-indole-2-carbonyl)-4H,5H,6H,7H-pyrazolo[1,5-a]pyrazine-3-carbonyl]-8-oxa-4-azaspiro[2.6]nonane], the EC50 (HBV) is reported as less than 1 µM, the IC50 [1] is reported as less than 5 µM and the CC50 at 6 days [2] is reported as greater than 10 µM.
`O=C(c1cc2ccccc2[nH]1)N1CCn2ncc(C(=O)N3CCOCCC34CC4)c2C1` [Example 68, 4-[5-(1H-indole-2-carbonyl)-4H,5H,6H,7H-pyrazolo[1,5-a]pyrazine-3-carbonyl]-7-oxa-4-azaspiro[2.6]nonane] gave an EC50 (HBV) of less than 1 µM, an IC50 [1] of less than 5 µM and a CC50 at 6 days [2] greater than 10 µM.
Work on `O=C(c1cc2ccccc2[nH]1)N1CCn2ncc(C(=O)N3CCOC(F)(F)C3)c2C1` [Example 69, 2-[3-(2,2-difluoromorpholine-4-carbonyl)-4H,5H,6H,7H-pyrazolo[1,5-a]pyrazine-5-carbonyl]-1H-indole] yielded an EC50 (HBV) of less than 1 µM, an IC50 [1] of less than 5 µM and a CC50 at 6 days [2] greater than 10 µM.
`CN(C(=O)c1cnn2c1CN(C(=O)c1cc3ccccc3[nH]1)CC2)C1(c2cccnc2)CC1` [Example 72, 5-(1H-indole-2-carbonyl)-N-methyl-N-[1-(pyridin-3-yl)cyclopropyl]-4H,5H,6H,7H-pyrazolo[1,5-a]pyrazine-3-carboxamide] gave an EC50 (HBV) of less than 1 µM, an IC50 [1] of less than 5 µM and a CC50 at 6 days [2] greater than 10 µM.
`O=C(c1cc2ccccc2[nH]1)N1CCn2ncc(C3CCCO3)c2C1` (stereo not drawn) [Example 73, 2-[3-(oxolan-2-yl)-4H,5H,6H,7H-pyrazolo[1,5-a]pyrazine-5-carbonyl]-1H-indole] gave an EC50 (HBV) of less than 1 µM, an IC50 [1] of less than 5 µM and a CC50 at 6 days [2] greater than 10 µM.
`CN(C(=O)c1cnn2c1CN(C(=O)c1cc3ccccc3[nH]1)CC2)C1CC1` [Example 74, N-cyclopropyl-5-(1H-indole-2-carbonyl)-N-methyl-4H,5H,6H,7H-pyrazolo[1,5-a]pyrazine-3-carboxamide] gave an EC50 (HBV) of less than 1 µM, an IC50 [1] of less than 5 µM and a CC50 at 6 days [2] greater than 10 µM.
With `O=C(c1cc2ccccc2[nH]1)N1CCn2ncc(C(=O)N(CCO)C3(CO)CC3)c2C1` [Example 75, N-(2-hydroxyethyl)-N-[1-(hydroxymethyl)cyclopropyl]-5-(1H-indole-2-carbonyl)-4H,5H,6H,7H-pyrazolo[1,5-a]pyrazine-3-carboxamide] the EC50 (HBV) was less than 1 µM, the IC50 [1] was less than 5 µM and the CC50 at 6 days [2] was greater than 10 µM.
With `O=C(c1cc2ccccc2[nH]1)N1CCn2ncc(N3CCC4(CC4)C3=O)c2C1` [Example 76, 5-[5-(1H-indole-2-carbonyl)-4H,5H,6H,7H-pyrazolo[1,5-a]pyrazin-3-yl]-5-azaspiro[2.4]heptan-4-one] the EC50 (HBV) was 1 to 10 µM, the IC50 [1] was 5 to 10 µM and the CC50 at 6 days [2] was greater than 10 µM.
`CN(CCO)C(=O)c1cnn2c1CN(C(=O)c1cc3ccccc3[nH]1)CC2` [Example 77, N-(2-hydroxyethyl)-5-(1H-indole-2-carbonyl)-N-methyl-4H,5H,6H,7H-pyrazolo[1,5-a]pyrazine-3-carboxamide] showed an EC50 (HBV) of less than 1 µM, an IC50 [1] of less than 5 µM and a CC50 at 6 days [2] greater than 10 µM.
Compound `C[C@H](NC(=O)c1cnn2c1CN(C(=O)c1cc3ccccc3[nH]1)CC2)C(F)(F)F` [Example 78, 5-(1H-indole-2-carbonyl)-N-[(2S)-1,1,1-trifluoropropan-2-yl]-4H,5H,6H,7H-pyrazolo[1,5-a]pyrazine-3-carboxamide] has an EC50 (HBV) of less than 1 µM, an IC50 [1] of less than 5 µM and a CC50 at 6 days [2] greater than 10 µM.
For `C[C@@H](NC(=O)c1cnn2c1CN(C(=O)c1cc3ccccc3[nH]1)CC2)C(F)(F)F` [Example 79, 5-(1H-indole-2-carbonyl)-N-[(2R)-1,1,1-trifluoropropan-2-yl]-4H,5H,6H,7H-pyrazolo[1,5-a]pyrazine-3-carboxamide], the EC50 (HBV) was less than 1 µM, the IC50 [1] was less than 5 µM and the CC50 at 6 days [2] was greater than 10 µM.
`CN(C(=O)c1cnn2c1CN(C(=O)c1cc3ccccc3[nH]1)CC2)C1(CNCC(F)(F)F)CC1` [Example 80, 5-(1H-indole-2-carbonyl)-N-methyl-N-(1-{[(2,2,2-trifluoroethyl)amino]methyl}cyclopropyl)-4H,5H,6H,7H-pyrazolo[1,5-a]pyrazine-3-carboxamide] showed an EC50 (HBV) of less than 1 µM, an IC50 [1] of less than 5 µM and a CC50 at 6 days [2] greater than 10 µM.
In the case of `CN(C(=O)c1cnn2c1CN(C(=O)c1cc3c(F)c(F)ccc3[nH]1)CC2)C1(CO)CC1` [Example 81, 5-(4,5-difluoro-1H-indole-2-carbonyl)-N-[1-(hydroxymethyl)cyclopropyl]-N-methyl-4H,5H,6H,7H-pyrazolo[1,5-a]pyrazine-3-carboxamide], the EC50 (HBV) is reported as less than 1 µM, the IC50 [1] is reported as less than 5 µM and the CC50 at 6 days [2] is reported as greater than 10 µM.
For `CN(C(=O)c1cnn2c1CN(C(=O)c1cc3c(F)ccc(F)c3[nH]1)CC2)C1(CO)CC1` [Example 82, 5-(4,7-difluoro-1H-indole-2-carbonyl)-N-[1-(hydroxymethyl)cyclopropyl]-N-methyl-4H,5H,6H,7H-pyrazolo[1,5-a]pyrazine-3-carboxamide], the EC50 (HBV) was less than 1 µM, the IC50 [1] was less than 5 µM and the CC50 at 6 days [2] was greater than 10 µM.
Work on `Cc1cc(F)cc2[nH]c(C(=O)N3CCn4ncc(C(=O)N(C)C5(CO)CC5)c4C3)cc12` [Example 83, 5-(6-fluoro-4-methyl-1H-indole-2-carbonyl)-N-[1-(hydroxymethyl)cyclopropyl]-N-methyl-4H,5H,6H,7H-pyrazolo[1,5-a]pyrazine-3-carboxamide] yielded an EC50 (HBV) of less than 1 µM, an IC50 [1] of less than 5 µM and a CC50 at 6 days [2] greater than 10 µM.
For `CN(C(=O)c1cnn2c1CN(C(=O)c1cc3cc(F)c(Cl)cc3[nH]1)CC2)C1(CO)CC1` [Example 84, 5-(6-chloro-5-fluoro-1H-indole-2-carbonyl)-N-[1-(hydroxymethyl)cyclopropyl]-N-methyl-4H,5H,6H,7H-pyrazolo[1,5-a]pyrazine-3-carboxamide], the EC50 (HBV) was less than 1 µM, the IC50 [1] was less than 5 µM and the CC50 at 6 days [2] was greater than 10 µM.
With `CN(C(=O)c1cnn2c1CN(C(=O)c1cc3c(Cl)cc(F)cc3[nH]1)CC2)C1(CO)CC1` [Example 85, 5-(4-chloro-6-fluoro-1H-indole-2-carbonyl)-N-[1-(hydroxymethyl)cyclopropyl]-N-methyl-4H,5H,6H,7H-pyrazolo[1,5-a]pyrazine-3-carboxamide] the EC50 (HBV) was less than 1 µM, the IC50 [1] was less than 5 µM and the CC50 at 6 days [2] was greater than 10 µM.
With `O=C(O)c1ccccc1C1CC(=O)N(c2cnn3c2CN(C(=O)c2cc4ccccc4[nH]2)CC3)C1` (stereo not drawn) [Example 86, 2-{1-[5-(1H-indole-2-carbonyl)-4H,5H,6H,7H-pyrazolo[1,5-a]pyrazin-3-yl]-5-oxopyrrolidin-3-yl}benzoic Acid] the EC50 (HBV) was 1 to 10 µM, the IC50 [1] was less than 5 µM and the CC50 at 6 days [2] was greater than 10 µM.
Compound `CC(C)(C)NC(=O)c1cnn2c1CN(C(=O)c1cc3ccccc3[nH]1)CC2` [Example 87, N-tert-butyl-5-(1H-indole-2-carbonyl)-4H,5H,6H,7H-pyrazolo[1,5-a]pyrazine-3-carboxamide] has an EC50 (HBV) of less than 1 µM, an IC50 [1] of less than 5 µM and a CC50 at 6 days [2] greater than 10 µM.
`O=C(O)c1cccc(F)c1C1CC(=O)N(c2cnn3c2CN(C(=O)c2cc4ccccc4[nH]2)CC3)C1` (stereo not drawn) [Example 88, 3-fluoro-2-{1-[5-(1H-indole-2-carbonyl)-4H,5H,6H,7H-pyrazolo[1,5-a]pyrazin-3-yl]-5-oxopyrrolidin-3-yl}benzoic Acid] gave an EC50 (HBV; printed as number instead of class symbol) greater than 10 µM, an IC50 [1] of less than 5 µM and a CC50 at 6 days [2] greater than 10 µM.
Work on `CC(COC(F)F)NC(=O)c1cnn2c1CN(C(=O)c1cc3ccccc3[nH]1)CC2` (stereo not drawn) [Example 89, N-[1-(difluoromethoxy)propan-2-yl]-5-(1H-indole-2-carbonyl)-4H,5H,6H,7H-pyrazolo[1,5-a]pyrazine-3-carboxamide] yielded an EC50 (HBV) of less than 1 µM, an IC50 [1] of less than 5 µM and a CC50 at 6 days [2] greater than 10 µM.
`O=C(c1cc2ccccc2[nH]1)N1CCn2ncc(C(=O)N(CCOC(F)F)C3CC3)c2C1` [Example 90, N-cyclopropyl-N-[2-(difluoromethoxy)ethyl]-5-(1H-indole-2-carbonyl)-4H,5H,6H,7H-pyrazolo[1,5-a]pyrazine-3-carboxamide] showed an EC50 (HBV) of less than 1 µM, an IC50 [1] of less than 5 µM and a CC50 at 6 days [2] greater than 10 µM.
Work on `CN(C(=O)c1cnn2c1CN(C(=O)c1cc3ccccc3[nH]1)CC2)C1(c2ccc(CO)cc2)CC1` [Example 91, N-{1-[4-(hydroxymethyl)phenyl]cyclopropyl}-5-(1H-indole-2-carbonyl)-N-methyl-4H,5H,6H,7H-pyrazolo[1,5-a]pyrazine-3-carboxamide] yielded an EC50 (HBV) of less than 1 µM, an IC50 [1] of less than 5 µM and a CC50 at 6 days [2] greater than 10 µM.
